We go through seven molecules from ChEMBL document CHEMBL1152112, “1-Phenyl-[2H]-tetrahydropyridazin-3-one, A-53612, a selective orally active 5-lipoxygenase inhibitor” (Bioorg Med Chem Lett, 1992).

The species entered for series [1] is Rattus norvegicus. As to the kind of experiment: Toxicity was assessed from activity to convert hemoglobin to methemoglobin in vitro at 400 uM in rat; T-toxic.
Series [2] can be described thus: Compound was evaluated for Plasma levels upon oral administration at 30 mg/kg in Monkey at maximum of 1.0 hours. It is filed as ADME, organism-based. Also noted: dose 30 mg/kg, route oral. To be noted: cercopithecidae, read-out: Concentration.
Series [3] addresses T1, Polyunsaturated fatty acid 5-lipoxygenase (Homo sapiens, UniProt P09917).
T1 sequence (P09917 whole entry): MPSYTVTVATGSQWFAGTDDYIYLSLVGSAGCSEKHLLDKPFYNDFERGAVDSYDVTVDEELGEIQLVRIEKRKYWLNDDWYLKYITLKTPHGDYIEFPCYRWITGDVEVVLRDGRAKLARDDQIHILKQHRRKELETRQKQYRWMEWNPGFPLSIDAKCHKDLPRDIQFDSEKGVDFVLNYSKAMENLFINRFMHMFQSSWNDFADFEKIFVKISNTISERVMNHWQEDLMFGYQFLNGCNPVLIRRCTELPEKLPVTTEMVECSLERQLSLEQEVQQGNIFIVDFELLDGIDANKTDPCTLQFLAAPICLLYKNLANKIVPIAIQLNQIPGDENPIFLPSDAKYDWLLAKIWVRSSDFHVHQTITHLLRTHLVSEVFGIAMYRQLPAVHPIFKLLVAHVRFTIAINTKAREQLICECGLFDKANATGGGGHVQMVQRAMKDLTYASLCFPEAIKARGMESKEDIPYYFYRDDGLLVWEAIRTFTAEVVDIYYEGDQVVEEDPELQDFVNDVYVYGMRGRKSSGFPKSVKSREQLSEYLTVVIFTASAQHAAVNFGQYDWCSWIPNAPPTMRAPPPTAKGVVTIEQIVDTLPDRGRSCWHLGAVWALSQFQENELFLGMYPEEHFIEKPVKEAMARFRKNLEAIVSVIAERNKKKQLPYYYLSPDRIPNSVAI
Nature of the series: Inhibitory activity against human whole blood, LTB4 5-lipoxygenase was evaluated.

Series [4] can be described thus: Compound was evaluated for Plasma levels upon oral administration at 30 mg/kg in Dog at maximum of 0.3 hours. It is filed as ADME, organism-based, Canis lupus familiaris. Also noted: dose 30 mg/kg, route oral.
For series [5], the target named is T2, Polyunsaturated fatty acid 5-lipoxygenase (Rattus norvegicus, UniProt P12527).
T2 sequence (P12527 whole entry): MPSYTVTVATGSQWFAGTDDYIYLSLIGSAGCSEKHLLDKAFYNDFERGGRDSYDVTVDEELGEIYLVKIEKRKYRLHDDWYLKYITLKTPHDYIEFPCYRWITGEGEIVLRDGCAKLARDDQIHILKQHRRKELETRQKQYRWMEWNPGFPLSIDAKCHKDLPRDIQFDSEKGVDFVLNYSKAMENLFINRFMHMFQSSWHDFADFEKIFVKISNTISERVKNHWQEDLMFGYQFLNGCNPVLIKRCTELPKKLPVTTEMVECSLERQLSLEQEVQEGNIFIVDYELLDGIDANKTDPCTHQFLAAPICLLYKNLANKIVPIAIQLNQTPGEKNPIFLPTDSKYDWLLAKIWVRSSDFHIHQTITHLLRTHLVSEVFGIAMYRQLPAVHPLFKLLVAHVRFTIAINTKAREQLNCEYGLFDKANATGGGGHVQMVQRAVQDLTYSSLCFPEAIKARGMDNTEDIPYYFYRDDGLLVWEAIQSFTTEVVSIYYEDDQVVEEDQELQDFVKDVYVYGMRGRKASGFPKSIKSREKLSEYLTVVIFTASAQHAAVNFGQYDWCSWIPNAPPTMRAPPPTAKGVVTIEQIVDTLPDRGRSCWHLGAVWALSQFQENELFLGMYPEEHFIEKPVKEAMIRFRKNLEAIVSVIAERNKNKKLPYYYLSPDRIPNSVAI
Nature of the series: Inhibitory activity against RBL broken cell-supematant 5-lipoxygenase was evaluated. It is filed as cell-based.

The target in series [6] is T1, Polyunsaturated fatty acid 5-lipoxygenase. As to the kind of experiment: Inhibitory activity against intact human PMNL, LTB4 5-lipoxygenase was evaluated.
For series [7], the target named is T3, Polyunsaturated fatty acid lipoxygenase ALOX12 (Homo sapiens) (UniProt P18054).
T3 sequence (whole entry): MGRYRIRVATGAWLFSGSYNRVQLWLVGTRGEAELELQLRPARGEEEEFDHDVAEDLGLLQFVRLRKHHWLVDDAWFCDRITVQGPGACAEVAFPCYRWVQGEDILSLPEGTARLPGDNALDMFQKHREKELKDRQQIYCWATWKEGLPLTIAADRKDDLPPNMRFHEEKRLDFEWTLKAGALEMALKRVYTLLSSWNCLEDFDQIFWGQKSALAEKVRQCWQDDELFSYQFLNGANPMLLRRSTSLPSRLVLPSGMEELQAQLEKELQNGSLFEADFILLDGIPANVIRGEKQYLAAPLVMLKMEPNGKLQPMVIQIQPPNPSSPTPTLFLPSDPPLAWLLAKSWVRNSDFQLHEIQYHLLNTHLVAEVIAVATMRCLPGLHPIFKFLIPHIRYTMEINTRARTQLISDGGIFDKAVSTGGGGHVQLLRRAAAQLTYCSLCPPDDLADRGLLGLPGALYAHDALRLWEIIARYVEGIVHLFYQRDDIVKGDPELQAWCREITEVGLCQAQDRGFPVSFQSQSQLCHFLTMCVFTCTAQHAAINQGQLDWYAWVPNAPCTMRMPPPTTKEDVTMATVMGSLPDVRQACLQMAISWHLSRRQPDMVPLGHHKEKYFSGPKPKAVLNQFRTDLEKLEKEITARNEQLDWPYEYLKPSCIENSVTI
As to the kind of experiment: Inhibitory activity against human platelet 12-lipoxygenase was evaluated at 100 uM.

The target in series [8] is T2, Polyunsaturated fatty acid 5-lipoxygenase. As to the kind of experiment: Inhibitory activity against intact rat PMNL, LTB4 5-lipoxygenase was evaluated.
Series [9] concerns Rattus norvegicus. As to the kind of experiment: In vivo activity of compound was evaluated in a rat anaphylaxis model involving antigen-antibody stimulated leukotriene generation in the peritoneum by oral administration. Format: functional.
Series [10] can be described thus: Compound was evaluated for Plasma levels upon oral administration at 30 mg/kg in Monkey at maximum of 0.4 hours. It is filed as ADME, organism-based. On the set-up: dose 30 mg/kg, route oral. Conditions: cercopithecidae, read-out: Concentration.
Series [11] in a line: Half-life upon intravenous administration was tested. Format: ADME, organism-based. To be noted: in vivo.
In series [12] the target is Cyclooxygenase (Homo sapiens) (UniProt P35354+P23219). Nature of the series: Inhibitory activity against human whole blood, TXB2 cyclooxygenase was evaluated at 100 uM. Format: protein assay.
Series [13] deals with Cyclooxygenase (Rattus norvegicus) (UniProt P35355+Q63921). Nature of the series: Inhibitory activity against intact rat PMNL, PGE-2 cyclooxygenase was evaluated at 100 uM. Format: protein assay.
The target of series [14] is T4, Polyunsaturated fatty acid lipoxygenase ALOX12 (Homo sapiens, UniProt P18054).
T4 sequence (P18054 whole entry): T3 sequence (whole entry)
Nature of the series: Inhibitory activity against human platelet 12-lipoxygenase was evaluated.

Series [15] concerns Rattus norvegicus. As to the kind of experiment: The in vivo activity of compound was evaluated in a rat anaphylaxis model involving antigen-antibody stimulated leukotriene generation in the peritoneum by oral administration. It is filed as functional.
Series [16] has as its target T5, Cyclooxygenase (Rattus norvegicus, UniProt P35355+Q63921).
T5 sequence (P35355 whole entry): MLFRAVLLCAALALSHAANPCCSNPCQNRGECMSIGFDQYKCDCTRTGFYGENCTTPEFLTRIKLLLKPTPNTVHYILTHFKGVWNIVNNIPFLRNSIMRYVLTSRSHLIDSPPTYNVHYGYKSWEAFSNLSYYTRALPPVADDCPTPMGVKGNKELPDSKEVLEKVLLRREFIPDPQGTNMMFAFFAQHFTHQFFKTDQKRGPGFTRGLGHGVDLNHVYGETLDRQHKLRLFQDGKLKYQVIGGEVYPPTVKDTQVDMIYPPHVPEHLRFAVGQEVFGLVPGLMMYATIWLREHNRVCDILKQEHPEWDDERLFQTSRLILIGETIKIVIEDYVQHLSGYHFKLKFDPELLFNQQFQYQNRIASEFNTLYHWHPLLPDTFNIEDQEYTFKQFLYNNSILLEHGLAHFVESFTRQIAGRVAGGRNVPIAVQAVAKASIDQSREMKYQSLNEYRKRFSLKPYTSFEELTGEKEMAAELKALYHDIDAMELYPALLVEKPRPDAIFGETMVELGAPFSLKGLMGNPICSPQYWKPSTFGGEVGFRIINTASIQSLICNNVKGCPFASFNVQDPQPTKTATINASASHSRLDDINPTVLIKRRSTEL
T5 sequence (Q63921 whole entry): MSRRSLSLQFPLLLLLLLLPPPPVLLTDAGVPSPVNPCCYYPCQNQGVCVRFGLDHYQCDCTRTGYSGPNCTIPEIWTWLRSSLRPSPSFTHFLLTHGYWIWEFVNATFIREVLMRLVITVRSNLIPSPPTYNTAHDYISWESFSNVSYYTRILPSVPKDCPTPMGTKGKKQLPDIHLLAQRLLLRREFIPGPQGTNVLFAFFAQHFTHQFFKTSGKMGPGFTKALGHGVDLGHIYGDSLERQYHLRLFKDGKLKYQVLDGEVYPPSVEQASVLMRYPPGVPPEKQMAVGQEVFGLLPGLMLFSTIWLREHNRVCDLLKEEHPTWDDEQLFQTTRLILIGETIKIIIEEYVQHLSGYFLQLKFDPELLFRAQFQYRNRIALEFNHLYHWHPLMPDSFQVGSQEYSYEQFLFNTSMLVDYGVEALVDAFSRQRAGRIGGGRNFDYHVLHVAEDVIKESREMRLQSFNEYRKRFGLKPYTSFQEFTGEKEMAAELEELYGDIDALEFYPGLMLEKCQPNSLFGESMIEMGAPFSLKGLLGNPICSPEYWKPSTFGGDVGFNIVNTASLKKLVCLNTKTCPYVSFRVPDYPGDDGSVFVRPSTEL
As to the kind of experiment: Inhibitory activity against intact rat PMNL, PGE-2 cyclooxygenase was evaluated. Format: protein assay.

On to `O=C1CCCN(c2ccc(O[C@H]3O[C@@H](C(=O)O)[C@H](O)[C@@H](O)[C@@H]3O)cc2)N1`, for which, in series [1], the Activity entry is “Toxic”.
The same measure, in the same setting: with `O=C(O)[C@H]1O[C@@H](OC2=NN(c3ccccc3)CCC2)[C@H](O)[C@@H](O)[C@@H]1O` the entry was “Toxic”; with `O=C1CCC(O)N(c2ccccc2)N1` (stereo unspecified), “Toxic”.
As to `O=C1CCCN(c2ccccc2)N1`, the Cmax worked out at 90 µM in series [2] and 22 µM in series [10]. Besides, the IC50 was determined as 700 nM in [3], 4300 nM in series [5], 1000 nM in series [6] and 1200 nM in series [8]. In series [4], this molecule showed a concentration at 0.3 h of 124 µM. Besides, the inhibition in series [7] was 7%; in series [12], 13%; in series [13] it was 3%. Moreover, the ED50 in series [9] is 6 mg/kg. This molecule also gave a half-life in series [11] of 1.1 h.
Molecule `O=C1CCN(c2ccccc2)N1` [PHENIDONE] registered an IC50 in [14] of 100 nM. The ED50 in [15] was determined as 17 mg/kg.
Consider `O=C1CCCN(c2ccc(O)cc2)N1`, for which the Activity result in series [1] is “Toxic”.
`NC1=NN(c2cccc(C(F)(F)F)c2)CC1` [BW-755C] gave an inhibition in [7] of 5%. Moreover, the ED50 in [15] came out at 36 mg/kg. In series [16], this molecule had an IC50 of 800 nM.

As a reminder, the IC50 is the concentration at which inhibition is half-maximal. As a reminder, the inhibition is the relative decrease from the control value, in per cent. Broadly, the ED50 is the dose that gives a 50% effect, or the effect in half of the subjects. The term half-life denotes the time needed for the level to fall by half in the phase considered.
